The values that follow come from article PMC10823468, “Design, Synthesis, and Evaluation of New 1H-Benzo[d]imidazole Based PqsR Inhibitors as Adjuvant Therapy for Pseudomonas aeruginosa Infections” (Journal of Medicinal Chemistry, 2024).

Data set [1] deals with PqsR (PqsR-controlled pqsA promoter, PAO1-L mCTX::PpqsA-lux). As to the kind of experiment: Bioluminescent reporter assay, PAO1-L mCTX::PpqsA-lux. Format: cell-based, Pseudomonas aeruginosa. Conditions: Pseudomonas aeruginosa, PAO1, read-out: IC50 (μM) PAO1-L mCTX::PpqsA-lux. As for the experimental part: (§1) An extensive SAR was performed on 6a to investigate the role of substitutions around various positions of the benzimidazole ring (groups R1–R3) as well as the aromatic tail (groups R4–R5) to fine-tune the potency of this series (6a–u) (Table 2). The activity of these analogues to inhibit the pqs QS system was evaluated in the PAO1-L and PA14 strains (that belong to the two major P. aeruginosa genomic lineages), both harboring a chromosomally integrated mCTX::PpqsA-lux transcriptional fusion to report for the activity of pqs system. Successful pharmacological blocking of AQ signal reception at the level of PqsR leads to a reduced transcription of the pqsA-lux genes and ultimately reduction in the luminescence readout.
(§2) Strains PA14 mCTX::PpqsA-lux and PAO1-L mCTX::PpqsA-lux were used to detect PqsR-controlled activation of the pqsA promoter, as previously described,[45] and the assay was performed according to a published method.[46] For initial screening, the compounds were tested at a concentration of 10 μM, which was prepared from a 10 mM stock, in DMSO.

Data set [2] deals with PqsR (PqsR-controlled pqsA promoter, PA14 mCTX::PpqsA-lux). Put plainly: Bioluminescent reporter assay, PA14 mCTX::PpqsA-lux. Format: cell-based. Particulars: Pseudomonas aeruginosa, PA14, read-out: IC50 (μM) PA14 mCTX::PpqsA-lux. The procedure:
as §1, §2

For data set [3], the system named is AQ production in P. aeruginosa laboratory strains and CF isolates. As to the kind of experiment: Alkyl quinolone (AQ: HHQ, PQS, HQNO) quantification by LC-MS/MS. It is filed as cell-based, Pseudomonas aeruginosa. An excerpt: PqsR directly regulates the biosynthesis of diverse AQs, of which HHQ and PQS act as QS molecules, while others such as 2-heptyl- 4-hydroxyquinoline N-oxide (HQNO) are potent cytochrome bc1 inhibitors that contribute to the environmental competitiveness of this pathogen.[9],[28] Previous studies have shown that PQS is a multifunctional iron chelator acting via PqsR-dependent and PqsR-independent pathways, contributing directly to iron acquisition and microvesicle formation.[29] […] PqsR inhibition reduces production of AQ, which can be quantified to serve as a direct readout for pqs system inhibition.[9] To this end, 6f was incubated with various P. aeruginosa laboratory strains and CF isolates and its impact on AQ production determined quantitatively using LCMS/MS and compared with untreated samples.
For each test sample, 100 μL of sterile filtered supernatant was spiked with 10 μL of an internal standard solution (10 μM d4-PQS in MeOH) and diluted with water to a total volume of 500 μL. Samples were then extracted three times with an 0.5 mL aliquot of ethyl acetate, vortex mixing the aqueous/organic mix for 2 min, then removing the organic phase once the layers had successfully partitioned. For each sample, the combined organic extracts were dried under vacuum and redissolved in 100 μL of MeOH prior to analysis. For the LC-MS/MS analysis of supernatant extracts, the chromatography was achieved using a Shimadzu series 10AD VP LC system (Columbia, MD, USA). The LC column, maintained at 40 °C, was a Phenomenex Gemini C18 (3.0 μm, 100 mm × 3.0 mm) (Macclesfield, Cheshire, UK) with an appropriate guard column. Mobile phase A was 0.1% (v/v) formic acid in water containing 2 mM 2-picolinic acid, and mobile phase B 0.1% (v/v) formic acid in methanol. The flow rate throughout the chromatographic separation was 450 μL/min. After an injection of a 2 μL/sample, a binary gradient, beginning initially at 30% B, increased linearly to 99% B over 5 min. The composition remained at 99% B for 3 min, decreased to 30% B over 1 min, and stayed at this composition for 4 min, to allow for column equilibration. The MS system used for analyte detection was an Applied Biosystems Qtrap 4000 hybrid triple-quadrupole linear ion trap mass spectrometer (Foster City, CA, USA), equipped with an electrospray ionization (ESI) interface. Instrument control, data collection, and analysis were conducted using Analyst software (Foster City, CA, USA). […] Where chromatographic peaks for HHQ, HQNO, and PQS were detected, a peak area was determined, and analyte peak area/internal standard peak area calcdulated.

Data set [4] has as its system pyocyanin production in P. aeruginosa. Put plainly: Pyocyanin quantification. Format: cell-based, Pseudomonas aeruginosa. Conditions: for pyocyanin production: 6f 200 nM. As for the experimental part: This assay was extended further to investigate the effect of 6f on pyocyanin production in different P. aeruginosa at 6f concentration of 200 nM (Figure 5b).
The experiment was performed following a published protocol with minor modifications. Strains were cultured into 5 mL of fresh medium overnight. […] Cells were centrifuged at 10 000 RCF for 10 min (Allegra 64R centrifuge, Beckman Coulter, High Wycombe, UK), and the supernatant was transferred to 15 mL falcon tubes with a HSW 10 mL Soft-Ject Syringe and a […] Sartorius syringe-driven filter (Fisher Brand, Loughborough, UK). Pyocyanin pigment was extracted into chloroform by mixing 7.5 mL of supernatant with 4.5 mL of chloroform. Pyocyanin was further extracted into 1.5 mL of 0.2 M HCL, which gave a pink/red solution, and the absorbance was measured at 520 nm.[47]

Details of data set [5]: method as in PMID 33073099. Particulars: human microsomes; cited from earlier work.
On the set-up of data set [6]: method as in PMID 33073099. Particulars: rat microsomes; cited from earlier work.
Details of data set [7]: method as in PMID 33073099. Conditions: rats; intratracheal; coarse suspension; cited from earlier work.

The structures appear in SMILES notation. Where two headings read alike, the source gives them in different places.

Usually IC50 stands for the concentration that gives 50% inhibition. As a reminder, the inhibition is the percentage by which the read-out fell short of the control. For the compound `CC(C)n1c(NCC(O)COc2ccc(CC#N)cc2)nc2ccc(Cl)cc21` (centres unmarked) [Compound 6f, 2-(4-(3-((6-Chloro-1-isopropyl-1H-benzo[d]imidazol-2-yl)amino)-2-hydroxypropoxy)phenyl) Acetonitrile], the results for the IC50 in data set [1] and in data set [2] were 0.07 ± 0.02 µM and 0.09 ± 0.01 µM, respectively. For the same compound, the “HHQ and PQS levels” value was “no significant reduction” in data set [3] (0.2 μM 6f, IPCD1331); “substantially reduced” in data set [3] (0.2 μM 6f, PAO1-L, PA14 and IPCD48 CF isolate, vs untreated). In data set [3] (0.2 μM 6f, IPCD1451 CF isolate), the HQNO concentrations result is “nonsignificant reduction”. Moreover, the AQ production result in data set [3] (0.2 μM 6f, LESB58 strain) is recorded as “moderate but significant reduction”. Moreover, the inhibition at 0.2 µM in data set [3] (Pseudomonas aeruginosa, read-out: HQNO inhibition) lay in the range of 20 to 60%. For the same compound, the pyocyanin production result in data set [4] (IPCD1451) was “nonsignificant inhibition”; in data set [4] (all strains except IPCD1451), “inhibited pyocyanin production”. Further, the “inhibition of pyocyanin production” value in data set [4] (PAO1-L, concentration three times the IC50, relative to DMSO) was about 80%. The half-life entry in data set [5] and in data set [6] was “relatively short” throughout. Also, the “clearance from lung to plasma” value in data set [7] was “rapid clearance”. In addition, the systemic clearance entry in data set [7] is on record as “fast systemic clearance”.
